Data on one compound can be found in paper PMC10986989, “Reciprocal regulation of enterococcal cephalosporin resistance by products of the autoregulated yvcJ-glmR-yvcL operon enhances fitness during cephalosporin exposure” (PLOS Genetics, 2024).

The assay concerns the target T1, GlmR (Enterococcus faecalis, UniProt A0ACD6TA08).
T1 construct: gene OG1RF_10501
The assay can be described thus: thermal shift assay (SYPRO Orange). It counts as binding. The settings on record: 10 uM protein, 1 mM ligand.

On to `CC(=O)N[C@H]1[C@@H](OP(=O)(O)OP(=O)(O)OC[C@H]2O[C@@H](n3ccc(=O)[nH]c3=O)[C@H](O)[C@@H]2O)O[C@H](CO)[C@@H](O)[C@@H]1O` [UDP-GlcNAc], for which the thermal shift result was “When incubated with UDP-GlcNAc, both YvcJ and GlmR exhibited clear thermal shifts”.
